Biological target: T1, NS5B from the BK strain (genotype 1b) (Hepatitis C virus genotype 1b, UniProt P26663)
T1 construct: NS5B from the BK strain (genotype 1b) is expressed in E. coli as a protein in which the 21 C-terminal amino acids are replaced; made in house; host or cells: E. coli
Assay: Hepatitis C polymerase inhibition, NS5B BK strain, 33P-GTP filter assay
Format: biochemical
Conditions: Table 1A; for inhibition at 20 µM: read-out: HCV pol % inh at 20 μM; for IC50: NS5B BK strain, read-out: HCV pol BK IC50
Description: The ability of the compounds of the present invention to inhibit Hepatitis C Polymerase was established by the following experimental procedure: • NS5B from the BK strain (genotype 1b) is expressed in E. coli as a protein in which the 21 C-terminal amino acids are replaced with a short linker and a hexahistidine tag ([…]). The purified protein is mixed with radioactive nucleotides and allowed to replicate a heteropolymeric RNA substrate, primed by an endogenous short hairpin, resulting in an approximately 760 nt product. The radioactive product is captured on a filter and quantitated after removal of the unincorporated nucleotides.
Reagents: • 10 mM uridine 5′-triphosphate (UTP) (Promega # p116B) • 10 mM adenine 5′-triphosphate (ATP) (Promega # p113B) • 10 mM cytidine 5′-triphosphate (CTP) (Promega # p114B) • 10 mM guanine 5′-triphosphate (GTP) (Promega # p115B) • Bovine Serum Albumin (BSA) 10 mg/ml NEB (100× at 10 mg/ml) #007-BSA • RNasein (Promega #N251X) 40 U/μl • A-[33P]-GTP (NEN-easytides NEG/606H 3000 Ci/mmol, 370 MBq/ml, 10 mCi/ml) • Falcon polypropylene 96 well plates (Becton Dickinson # 351190) • Millipore Multiscreen assasy system-96 well-filtration plate #MADE NOB 50 • Optiphase Supermix (Wallac) formulated by Fisher • Millipore Multiscreen liner for use in microbeta 1450-106 casette [(Wallac) Perkin Elmer #1450-433] • 1 M(N-[2-hydroxyethyl]piperazine-N′-[2-ethanesulfonic acid]) (HEPES), pH 7.3 • Amersham Pharmacia Biotec (US16924-500 ml) • 1 M MgCl2 (SIGMA #M1028) • Dithiothreitol (DTT) (solid) (SIGMA #D9779) • RNase free water (GIBCO-BRL #10977-023) • Dimethyl sulfoxide (Aldrich #27685-5) • Basilen Blue (Sigma, B5520) • 0.5M ethylenediaminetetraacetic acid (EDTA), pH 8 (GIBCO-BRL #15575-020) • Dibasic sodium phosphate (7-hydrate) (Na2HPO4.7H2O; Baker#3824-07) • Phosphoric acid (Baker, #0262.02)
Further reagent preparation: • 0.5 M Na Phosphate buffer. Per liter, weigh 134 gr Na2HPO4.7H2O, add water to 900 ml. Adjust pH to 7.0 with phosphoric acid. Top off with water to 1 L. • Dilute nucleotides 1:1000 to 10 μM (GTP and CTP) or 1:100 to 100 μM (ATP and UTP) into RNase free water.
Procedure: • (1) Compounds 10 μl at 10 μg/ml in 15% dimethylsulfoxide (DMSO)
When starting from 100 μg/ml compound stock in […]: • Dispense 5 μl 30% DMSO per well • Dispense 5 μl compound (100 μg/ml) per well.
When starting from 50 μg/ml compound stock in 15% DMSO: • Add 10 μl compound per well. • (2) Enzyme Mix:
Add 20 μl enzyme mix into each well of the assay plate. Incubate compound and enzyme at room temperature for 15 minutes • (3) Template mix—prepare ahead
Spin down a tube of RNA (5 μg/tube stored in 75% ethanol and 0.3 M sodium acetate) in a microcentrifuge for 20 minutes at 4° C. One tube is enough for 1–1.5 plates. Remove as much ethanol from the tube as possible by inverting the tube. Be gentle, pellet RNA may not adhere to the tube. Vacuum dry the RNA. Resuspend the RNA by adding 1 ml of DEPC water, close the cap of the tube tightly. To dissolve RNA, incubate RNA solution on ice for ˜60 minutes and gently vortex. Spin briefly to ensure all RNA solution is down to the bottom of the tube before opening cap. Gently transfer RNA solution into a 5 ml or larger tube. Add another 3 ml of DEPC water (total 4 ml of volume).
Add the following volumes of reagents
Add 20 μl template mix per reaction (i.e. 20 ng of pOF per reaction or ˜3 nM) • (4) Incubate reaction at room temperature (22–25° C.) for 2 hours. • (5) Stop reaction by adding 50 μl of 170 mM EDTA. • Final concentration of EDTA is 85 mM. • (6) Prewet filters of Millipore multiscreen assay plate by adding 200 μl of 0.5 M sodium phosphate buffer, pH 7.0 into each well. Let stand at room temperature for 2–3 minutes. • (7) Place the multiscreen filter plate onto a Millipore Manifold and turn on vacuum to allow buffer to flow through. Turn off vacuum. Transfer 80 μl of the reaction product into each well of the filter plate. Let stand for 2–3 minutes. […]

T1 sequence (P26663 2420-2989): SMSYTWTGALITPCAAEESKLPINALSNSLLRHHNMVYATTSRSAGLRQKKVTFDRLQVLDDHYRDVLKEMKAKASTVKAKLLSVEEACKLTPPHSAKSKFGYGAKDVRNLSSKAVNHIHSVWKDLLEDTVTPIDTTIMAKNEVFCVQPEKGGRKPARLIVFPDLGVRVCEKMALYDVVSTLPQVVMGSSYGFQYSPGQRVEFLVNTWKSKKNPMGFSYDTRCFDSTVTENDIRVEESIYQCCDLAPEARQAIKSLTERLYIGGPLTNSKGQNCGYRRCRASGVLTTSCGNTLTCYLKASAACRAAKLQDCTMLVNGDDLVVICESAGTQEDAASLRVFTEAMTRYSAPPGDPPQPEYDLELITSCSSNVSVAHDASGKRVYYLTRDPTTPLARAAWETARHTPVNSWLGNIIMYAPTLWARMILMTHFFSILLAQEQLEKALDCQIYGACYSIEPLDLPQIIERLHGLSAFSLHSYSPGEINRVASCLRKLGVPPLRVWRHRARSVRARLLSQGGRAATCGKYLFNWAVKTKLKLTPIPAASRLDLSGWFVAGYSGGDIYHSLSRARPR

Molecule	inhibition at 20 µM (20 μM compound)	IC50	HCV pol % inh at 20 μM (20 μM compound)
O=C(O)CC1(c2ccoc2)OCCc2c1[nH]c1cccc(Br)c21 (stereo not shown) [Example 25, [5-bromo-1-(3-furyl)-1,3,4,9-tetrahydropyrano[3,4-b]indol-1-yl]acetic acid]	33%	> 20 µM	
CC1(CC(=O)O)OCCc2c1[nH]c1c(Cl)cccc21 (stereo not shown) [Example 72, (8-chloro-1-methyl-1,3,4,9-tetrahydropyrano[3,4-b]indol-1-yl)acetic acid]	45%	> 20 µM	
Cc1cc(F)c2[nH]c3c(c2c1C#N)CCOC3(C)CC(=O)O (stereo not shown) [Example 219, (5-cyano-8-fluoro-1,6-dimethyl-1,3,4,9-tetrahydropyrano[3,4-b]indol-1-yl)acetic acid]	30%	> 5 µM	
N#Cc1cccc2[nH]c3c(c12)CCOC3(CC(=O)O)c1cccc([N+](=O)[O-])c1 (stereo not shown) [Example 65, [5-cyano-1-(3-nitrophenyl)-1,3,4,9-tetrahydropyrano[3,4-b]indol-1-yl]acetic acid]	27%	> 20 µM	
Cc1cc(Cl)c2[nH]c3c(c2c1C#N)CCOC3(CC(=O)O)c1ccc(C(=O)O)cc1 (stereo not shown) [Example 188, 4-[1-(carboxymethyl)-8-chloro-5-cyano-6-methyl-1,3,4,9-tetrahydropyrano[3,4-b]indol-1-yl]benzoic acid]	76%	> 5 µM	
CCCC1(CC(=O)O)OCCc2c1[nH]c1c(-c3cccc(Br)c3)cccc21 (stereo not shown) [Example 96, [8-(3-bromophenyl)-1-propyl-1,3,4,9-tetrahydropyrano[3,4-b]indol-1-yl]acetic acid]	37%	> 20 µM	
CCC1(CC(=O)O)OCCc2c1[nH]c1c(C)cc(F)c(C#N)c21 (stereo not shown) [Example 206, (5-cyano-1-ethyl-6-fluoro-8-methyl-1,3,4,9-tetrahydropyrano[3,4-b]indol-1-yl)acetic acid]	84%	1.1 µM	
CCCC1(CC(=O)O)OCC(C)(C)c2c1[nH]c1c(Cl)ccc(Cl)c21 (stereo not shown) [Example 230, (5,8-dichloro-4,4-dimethyl-1-propyl-1,3,4,9-tetrahydropyrano[3,4-b]indol-1-yl)acetic acid]		3.1 µM	
CCC1(CC(=O)O)OCCc2c1[nH]c1c(Cl)cc(C)c(Br)c21 (stereo not shown) [Example 174, (5-bromo-8-chloro-1-ethyl-6-methyl-1,3,4,9-tetrahydropyrano[3,4-b]indol-1-yl)acetic acid]	70%	> 5 µM	
CCCCC1(CC(=O)O)OCCc2c1[nH]c1c(C)ccc(F)c21 (stereo not shown) [Example 144, (1-butyl-5-fluoro-8-methyl-1,3,4,9-tetrahydropyrano[3,4-b]indol-1-yl)acetic acid]	73%	6 µM	
(5-bromo-8-fluoro-1,6-dimethyl-1,3,4,9-tetrahydropyrano[3,4-b]indol-1-yl)acetic acid [Example 163]		> 10 µM	28%
O=C(O)CC1(c2ccc(C(=O)O)cc2)OCCc2c1[nH]c1c(Cl)cc(Cl)c(Cl)c21 (stereo not shown) [Example 161, 4-[1-(carboxymethyl)-5,6,8-trichloro-1,3,4,9-tetrahydropyrano[3,4-b]indol-1-yl]benzoic acid]	74%	0.3 µM	
CC(C)C1(CC(=O)O)OCCc2c1[nH]c1c(F)cc(F)c(C#N)c21 (stereo not shown) [Example 198, (5-cyano-6,8-difluoro-1-isopropyl-1,3,4,9-tetrahydropyrano[3,4-b]indol-1-yl)acetic acid]	82%	> 5 µM	
CCCC1(CC(=O)O)OCCc2c1[nH]c1cccc(-c3cccc(Cl)c3)c21 (stereo not shown) [Example 49, [5-(3-chlorophenyl)-1-propyl-1,3,4,9-tetrahydropyrano[3,4-b]indol-1-yl]acetic acid]	< 5%	> 20 µM	
Cc1cc(F)c(C#N)c2c3c([nH]c12)C(CC(=O)O)(c1ccc(C(=O)O)cc1)OCC3 (stereo not shown) [Example 209, 4-[1-(carboxymethyl)-5-cyano-6-fluoro-8-methyl-1,3,4,9-tetrahydropyrano[3,4-b]indol-1-yl]benzoic acid]	63%	17.9 µM	
O=C(O)CC1(c2ccc([N+](=O)[O-])cc2)OCCc2c1[nH]c1cccc(Br)c21 (stereo not shown) [Example 28, [5-bromo-1-(4-nitrophenyl)-1,3,4,9-tetrahydropyrano[3,4-b]indol-1-yl]acetic acid]	< 5%	> 20 µM	
CCCC1(CC(=O)O)OCCc2c1[nH]c1c(Cl)cc(Cl)c(Cl)c21 (stereo not shown) [Example 156, (5,6,8-trichloro-1-propyl-1,3,4,9-tetrahydropyrano[3,4-b]indol-1-yl)acetic acid]	88%	0.08 µM	
CCCC1(CC(=O)O)OCCc2c1[nH]c1cccc(-c3ccc(Cl)cc3Cl)c21 (stereo not shown) [Example 35, [5-(2,4-dichlorophenyl)-1-propyl-1,3,4,9-tetrahydropyrano[3,4-b]indol-1-yl]acetic acid]	35%	> 20 µM	
CCCC1(CC(=O)O)OCCc2c1[nH]c1c(C)cc(F)c(Br)c21 (stereo not shown) [Example 201, (5-bromo-6-fluoro-8-methyl-1-propyl-1,3,4,9-tetrahydropyrano[3,4-b]indol-1-yl)acetic acid]	82%	0.15 µM	
CCC1(CC(=O)O)OCCc2c1[nH]c1c(Br)ccc(Br)c21 (stereo not shown) [Example 210, (5,8-dibromo-1-ethyl-1,3,4,9-tetrahydropyrano[3,4-b]indol-1-yl)acetic acid]	87%	0.43 µM	
CCCC1(CC(=O)O)OCCc2c1[nH]c1cccc(-c3cccc(OC)c3)c21 (stereo not shown) [Example 47, [5-(3-methoxyphenyl)-1-propyl-1,3,4,9-tetrahydropyrano[3,4-b]indol-1-yl]acetic acid]	15%	> 20 µM	
Cc1cc(F)c2[nH]c3c(c2c1C#N)CCOC3(CC(=O)O)C(C)C (stereo not shown) [Example 222, (5-cyano-8-fluoro-1-isopropyl-6-methyl-1,3,4,9-tetrahydropyrano[3,4-b]indol-1-yl)aceti acid]	45%	> 5 µM	
COC(=O)CC1(CC(=O)O)OCCc2c1[nH]c1cccc(Cl)c21 (stereo not shown) [Example 70, [5-chloro-1-(2-methoxy-2-oxoethyl)-1,3,4,9-tetrahydropyrano[3,4-b]indol-1-yl]acetic acid]	22%	> 5 µM	
CCCC1(CC(=O)O)OCCc2c1[nH]c1c(Br)cccc21 (stereo not shown) [Example 82, (8-bromo-1-propyl-1,3,4,9-tetrahydropyrano[3,4-b]indol-1-yl)acetic acid]	73%	9.2 µM	
CCCC1(CC(=O)O)OCCc2c1[nH]c1c(C#N)cccc21 (stereo not shown) [Example 98, (8-cyano-1-propyl-1,3,4,9-tetrahydropyrano[3,4-b]indol-1-yl)acetic acid]	44%	> 20 µM	

Source: patent publication US7217730B2, “Method for the use of pyranoindole derivatives to treat infection with Hepatitis C virus” (Wyeth, priority 2002, dated 2007)
